Data on nine compounds can be found in patent publication US20150064230A1, “SUSTAINED RELEASE DELIVERY OF ONE OR MORE AGENTS” (Mati Therapeutics Inc., priority 2009, published 2015).

A short description of data set [1]: Elution of latanoprost from silicone drug cores with excipients in PBS (FIGS. 9-12). The data set is classed as physicochemical. The settings on record: 37° C., 100 cpm, 10% glycerol, 5% PEG400, 7.3 wt % DMPC or EPG in Formulations 1 and 2. The method, then: The silicone formulation (MED6385) is a two part system. Part A contains the silicone and crosslinker while Part B contains the tin catalyst to promote crosslinking. The two parts are combined in a final ratio of 200:1 (Part A: Part B). The required amounts of Latanoprost, the selected excipient (DMPC or EPG), the crosslinker, MED6385 Part A and B are weighed onto a glass slide and mixed for approximately 2 minutes using a plastic mini spatula. Quantities used in the preparation of specific examples are shown below.
After the silicone/latanoprost mixing is complete, the mixture is loaded in the barrel of the syringe extrusion system. The plunger is inserted and excess air is removed. The syringe is then loaded into the extrusion apparatus.
After setup, the extrusion system activated and a silicone latanoprost mixture is extruded down the length of the polyimide tubing. Once the mixture reaches the bottom of the tubing, the tubing is cut using a razor blade and clamped on both ends.
The clamped section of tubing is placed in a humidity chamber to be cured.
Samples, including those shown in FIGS. 9-12, were analyzed for elution by immersion in a PBS (phosphate buffered saline) elution medium. Temperature was maintained at 37° C. with 100 cpm shaking. The elution medium was changed daily (except weekends) for the first two weeks and weekly thereafter. Elution media samples were analyzed by reversed-phase chromatography. Samples were prepared for HPLC analysis by adding 200 μL of internal standard solution (2.4 μg/mL of butylated hydroxyanisole in isopropanol) and vortexing to mix. The amount of latanoprost eluted was determined using a reversed phase HPLC UV detection using a Waters SunFire C18, 3.5 μm, 3.0×100 mm column and detection conditions of the following: 1.0 mL/min flow rate, 200 μL injection volume, 210 nm detection wavelength, using gradient of solvents over a run time of 6 minutes (time zero=63% mobile phase A, 37% mobile phase B, time 4.9 minutes=35% A, 65% B, time 5 minutes=63% A, 37% B) comprising 0.1% Phosphoric Acid in Water (mobile Phase A) and ACN (mobile phase B), 50° C. column temperature set point.

The conditions of data set [2]: cited from earlier work.
The test system of the next data set is subjects. The settings on record: clinical trials, cited from earlier work.
For data set [3] the following is noted: after topical administration; studies in man; cited from earlier work.

As to `CCCCCCCC/C=C\CCCCCCCC(=O)O[C@H](COC(=O)CCCCCCCCCCCCCCC)COP(=O)(O)OCC(O)CO` (stereo partly drawn) [POPG, palmitoyl oleoyl phosphatidylglycerol], in data set [1], the “release (elution) rate of latanoprost from silicone matrix with excipient relative to no excipient” value was “increased elution rate”.

In the case of `CCCCCCCCCCCCCCCC(=O)OCC(COP(=O)(O)OCCN)OC(=O)CCCCCCCCCCCCCCC` (stereo not drawn) [DPPE, dipalmitoyl phosphatidylethanolamine], the “release (elution) rate of latanoprost from silicone matrix with excipient relative to no excipient” value in data set [1] is “decreased elution rate”.

Turning to `CCCCCCCCCCCCCCCCCC(=O)O[C@H](COC(=O)CCCCCCCCCCCCCCC)COP(=O)([O-])OCC[N+](C)(C)C` [PSPC, palmitoyl stearoyl phosphatidylcholine], the “release (elution) rate of latanoprost from silicone matrix with excipient relative to no excipient” value in data set [1] is listed as “decreased elution rate”.

For the compound `CCCCCCCCCCCCCCCCCC(=O)OC[C@H](COP(=O)([O-])OCC[N+](C)(C)C)OC(=O)CCCCCCCCCCCCCCCCC` [DSPC, distearoyl phosphatidylcholine], the “release (elution) rate of latanoprost from silicone matrix with excipient relative to no excipient” value in data set [1] was “decreased elution rate”.

`CCCCCCCCCCCCCC(=O)OC[C@H](COP(=O)([O-])OCC[N+](C)(C)C)OC(=O)CCCCCCCCCCCCC` [DMPC, dimyristoyl phosphatidylcholine]: in data set [1], the “release (elution) rate of latanoprost from silicone matrix with excipient relative to no excipient” value is “increased elution rate”.

In the case of `CCCCCCCCCCCCCCCC(=O)OC[C@H](COP(=O)([O-])OCC[N+](C)(C)C)OC(=O)CCCCCCCCCCCCCCC` [DPPC, dipalmitoyl phosphatidylcholine], in data set [1], the “release (elution) rate of latanoprost from silicone matrix with excipient relative to no excipient” value was “decreased elution rate”.

On to `CCCCCCCCCCCCCC(=O)OCC(COP(=O)(O)OCC(O)CO)OC(=O)CCCCCCCCCCCCC` (stereo not drawn) [DMPG, dimyristoyl phosphatidylglycerol], for which, in data set [1], the “release (elution) rate of latanoprost from silicone matrix with excipient relative to no excipient” value was “increased elution rate”.

Turning to `OCC(O)CO` [glycerol], the “release (elution) rate of latanoprost from silicone matrix with excipient relative to no excipient” value in data set [1] is given as “rate is increased relative to control”.

`CC(C)OC(=O)CCC/C=C\C[C@@H]1[C@@H](CC[C@@H](O)CCc2ccccc2)[C@H](O)C[C@@H]1O` [latanoprost, isopropyl-(Z)-7[(1R,2R,3R,5S)3,5-dihydroxy-2-[(3R)-3-hydroxy-5-phenylpentyl]cyclopentyl]-5-heptenoate]: in data set [2], the “solubility in acetone, ethanol, ethyl acetate, isopropanol, methanol and octanol” value is “freely soluble”; the solubility in acetonitrile result is recorded as “very soluble”; the “solubility in water” value is listed as “practically insoluble in water”. Further, in data set [2] (in water at 25 degrees C.), the aqueous solubility is recorded as 50 micrograms/mL and the “aqueous solubility, by weight” value is “about 0.005 % by weight”. In addition, in the data set with subjects (Xalatan product information), the “conjunctivitis, diplopia, discharge from the eye, subjects” value is listed as “Less than 1%”; the “retinal artery embolus, retinal detachment, vitreous hemorrhage from diabetic retinopathy” value is on record as “rarely reported”; the “subjects requiring discontinuation of therapy because of intolerance to conjunctival hyperemia” value is listed as “Less than 1%”. Moreover, the “systemic adverse events: upper respiratory tract infection/cold/flu, rate” value in the data set with subjects is given as “approximately 4%”. Moreover, the “time to peak concentration in the aqueous humor” value in data set [3] is “about two”.
